Measured values taken from BindingDB's records for doi:10.1016/j.ejmech.2014.09.084 (University of Florence, 2014).

How the values were obtained:
[1] = Modulatory activity at P-gp assessed as doxorubicin IC50 in human K562 cells at 1 uM after 72 hrs by MTT assay (Rvb doxorubicin alone IC50 = 0.023 +/- 0.004 uM)
[2] = Modulatory activity at P-gp assessed as doxorubicin IC50 in human K562/DOX cells at 1 uM after 72 hrs by MTT assay (Rvb doxorubicin alone IC50 = 2.00 +/- 0.24 uM)
[3] = Modulatory activity at P-gp assessed as doxorubicin IC50 in human K562 cells at 0.1 uM after 72 hrs by MTT assay (Rvb doxorubicin alone IC50 = 0.023 +/- 0.004 uM)
[4] = Modulatory activity at P-gp assessed as doxorubicin IC50 in human K562 cells at 3 uM after 72 hrs by MTT assay (Rvb doxorubicin alone IC50 = 0.023 +/- 0.004 uM)
[5] = Modulatory activity at P-gp assessed as doxorubicin IC50 in human K562/DOX cells at 3 uM after 72 hrs by MTT assay (Rvb doxorubicin alone IC50 = 2.00 +/- 0.24 uM)
[6] = Modulatory activity at P-gp assessed as doxorubicin IC50 in human K562/DOX cells at 0.1 uM after 72 hrs by MTT assay (Rvb doxorubicin alone IC50 = 2.00 +/- 0.24 uM)

IC50 [1] [nM] | IC50 [2] [nM] | IC50 [3] [nM] | IC50 [4] [nM] | IC50 [5] [nM] | IC50 [6] [nM] | Structure (SMILES)
12 | 320 | 11 | 51 | 170 | 620 | COc1cc(/C=C/C(=O)OCCCN(C)CCCCCOC(=O)c2c3ccccc3cc3ccccc23)cc(OC)c1OC
41 | 230 | 22 | 19 | 63 | 830 | COc1cc(/C=C/C(=O)OCCCCN(C)CCCCOC(=O)c2c3ccccc3cc3ccccc23)cc(OC)c1OC
 | 60 | 30 | 18 | 35 | 300 | COc1cc(/C=C/C(=O)OCCCCCN(C)CCCOC(=O)c2c3ccccc3cc3ccccc23)cc(OC)c1OC
